# Results published in US20170275287A1, “NOVEL N2, N4, N7, 6-TETRASUBSTITUTED PTERIDINE-2,4,7-TRIAMINE AND 2, 4, 6, 7-TETRASUBSTITUTED PTERIDINE COMPOUNDS AND METHODS OF SYNTHESIS AND USE THEREOF” (Janus Biotherapeutics, Inc., priority 2014, published 2017).
# Target: T1, TLR8 (Homo sapiens, UniProt Q9NR97)
# T1 construct: PBMCs were isolated from unpurified buffy coat from healthy human donors; host or cells: primary human PBMCs
# T1 sequence (Q9NR97 27-1041): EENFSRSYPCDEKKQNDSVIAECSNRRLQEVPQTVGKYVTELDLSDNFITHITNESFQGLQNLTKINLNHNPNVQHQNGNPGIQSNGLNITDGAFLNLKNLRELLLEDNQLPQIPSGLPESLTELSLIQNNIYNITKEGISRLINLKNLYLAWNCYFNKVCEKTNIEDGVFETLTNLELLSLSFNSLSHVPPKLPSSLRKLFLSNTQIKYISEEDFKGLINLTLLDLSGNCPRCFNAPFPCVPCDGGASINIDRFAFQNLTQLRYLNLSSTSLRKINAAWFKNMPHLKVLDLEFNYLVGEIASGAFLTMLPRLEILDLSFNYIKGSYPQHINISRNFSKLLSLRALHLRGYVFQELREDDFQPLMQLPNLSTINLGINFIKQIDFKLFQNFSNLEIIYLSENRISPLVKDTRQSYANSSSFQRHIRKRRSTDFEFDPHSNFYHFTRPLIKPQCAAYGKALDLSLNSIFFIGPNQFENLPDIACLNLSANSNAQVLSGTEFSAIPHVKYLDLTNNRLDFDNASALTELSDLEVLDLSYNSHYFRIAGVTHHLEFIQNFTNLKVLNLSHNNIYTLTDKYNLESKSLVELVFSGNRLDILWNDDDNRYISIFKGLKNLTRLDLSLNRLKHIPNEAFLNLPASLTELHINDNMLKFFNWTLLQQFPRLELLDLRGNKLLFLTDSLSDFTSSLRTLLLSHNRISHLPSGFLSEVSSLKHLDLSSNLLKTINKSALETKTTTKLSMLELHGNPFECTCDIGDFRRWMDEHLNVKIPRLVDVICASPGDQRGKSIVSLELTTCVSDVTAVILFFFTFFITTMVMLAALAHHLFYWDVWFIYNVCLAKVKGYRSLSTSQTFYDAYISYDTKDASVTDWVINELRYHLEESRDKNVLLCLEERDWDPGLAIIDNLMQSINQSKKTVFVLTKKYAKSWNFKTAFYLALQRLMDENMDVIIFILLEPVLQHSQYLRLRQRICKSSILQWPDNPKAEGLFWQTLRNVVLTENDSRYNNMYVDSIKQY
# Assay: TLR8 antagonist assay in human PBMCs (ORN1075, TNFα ELISA)
# Assay type: cell-based
# Details: human PBMC, 0.5 μM ORN1075, TNFα readout
# Procedure: PBMCs were isolated from unpurified buffy coat from healthy human donors (Blood Research Components, LLC). For antagonist testing, cells were plated on 96-well U-bottom plates at 3×10^6 cells/ml. Antagonist compounds were added to cells in duplicate wells and titrated from 10 μM in 1:3 serial dilutions (8 antagonist concentrations tested in total). After approximately 30 minutes, cells were stimulated with agonist compound (see table 2 for agonist concentrations). After stimulation, cells were incubated overnight at 37° C. To increase the stability of the ssRNA, 3 μg/ml DOTAP (Roche) was added to ORN1075 agonist solutions. All dilutions were made in RPMI-1640 media (Sigma, cat.# R7388)+5% human male AB sera (Sigma, cat.# H4522)+1× Penicillin/Streptomycin solution (VWR, cat.#82026-730).
# TLR activity was measured in PBMCs and neutrophils by ELISA using cytokine readouts specific for the TLR of interest.
# TNFα was used as a readout for TLR8 activity in PBMCs and neutrophils stimulated with ORN1075 (See Table 3 for concentrations) using the ELISA Max™ Deluxe Set Human TNFα kit (BioLegend, cat.#430206). Supernatant from PBMCs was diluted 1:50 and from neutrophils at 1:3 in 1× Assay Diluent (BioLegend). ELISAs were run according to the kit product specifications. Absorbance at 450 nm was recorded using a Molecular Devices SpectraMax340PC plate reader. The IC50 for each antagonist was subsequently calculated following the method described below.
# Raw ELISA datasets for each 96-well plate, consisting of absorbance readings at […], were first imported in Microsoft Excel to calculate the average absorbance for each standard or antagonist concentration. The averaged data was then imported into SigmaPlot v.11.0 where a standard curve was calculated and used to extrapolate the relative concentration of TLR readout (TNFα, IFNα, etc.) produced. The dose-response curve of each antagonist was then plotted with SigmaPlot v.11.0 on a Log scale. Concentrations of TLR readout were converted to a percentage relative to the average maximum concentration for that ELISA plate in Microsoft Excel. The IC50 for each antagonist was then determined with the SigmaPlot regression wizard using a 4-parameter Hill equation. Each antagonist was tested in a minimum of 3 independent experiments and IC50 results were compiled and averaged using Microsoft Excel.
row,SMILES,IC50
1,CCCCNc1nc(NCCN2CCOCC2)c2nc(Cl)c(NCCN3CCOCC3)nc2n1 [JB6140],754 nM
2,CN1CCN(c2nc(NCCN3CCOCC3)c3ncc(-c4ccccc4)nc3n2)CC1 [JB6059],273 nM
3,"CN1CCN(c2nc(NCCN3CCOCC3)c3nc(Cl)c(NCCN4CCOCC4)nc3n2)CC1 [JB6121, 6-chloro-2-(4-methylpiperazin-1-yl)-N^4,N^7-bis(2-morpholinoethyl)pteridine-4,7-diamine]",514 nM
4,Clc1nc2c(NCCN3CCOCC3)nc(N3CCOCC3)nc2nc1NCCN1CCOCC1 [JB6147],7300 nM
5,C[C@@H]1CN(CCNc2nc3nc(N4CCN(C)CC4)nc(NCCN4C[C@@H](C)O[C@@H](C)C4)c3nc2Cl)C[C@H](C)O1 [JB6143],263 nM
6,CCOc1nc2c(NCCN3CCOCC3)nc(NCc3ccccc3)nc2nc1NCCN1CCOCC1 [JB6180],151 nM
7,CCOc1nc2c(NCCN3CCCC3)nc(-c3ccccc3)nc2nc1N1CCN(C)CC1 [JB6131],78 nM
8,CCCCNc1nc(NCCN2CCOCC2)c2nc(SCC)c(NCCN3CCOCC3)nc2n1 [JB6185],136 nM
9,COCCN1CCN(c2nc(NCCN3CCOCC3)c3nc(Cl)c(NCCN4CCOCC4)nc3n2)CC1 [JB6160],219 nM
10,Clc1nc2c(NCCN3CCOCC3)nc(NCc3ccccc3)nc2nc1NCCN1CCOCC1 [JB6172],246 nM
11,CN1CCN(c2nc3nc(-c4ccccc4)nc(NCCN4CCOCC4)c3nc2OCCN2CCOCC2)CC1 [JB6116],658 nM
